In patent publication US20170188618A1, “STABLE EMULSIONS FROM DIPEPTIDE DERIVATIVES” (UNIVERSITY OF STRATHCLYDE, priority 2014, published 2017):
Residues, ends and D or L forms follow the SMILES beside them. *: point of attachment. Fmoc = O=C(OCC1c2ccccc2-c2ccccc21)*

Legend:
[1] = Partitioning of peptides between water, chloroform and the water/chloroform interface (UV-Vis); type: physicochemical; conditions: water/chloroform biphasic system
Excerpt: (the volume ratio of buffer solution to chloroform is altered from 1:9, 3:7, 5:5, 7:3, to 9:1), after manual agitation for 5 seconds emulsions form in vials, as FIG. 2a shown. […] In the images shown, the milky layers are emulsions and the transparent layers above and below are the aqueous and chloroform phase, respectively. UV-Vis was used to determine the amount of Fmoc-YL that remained in water phase and transferred to chloroform. Fluorescein isothiocyanate (FITC) was used to label the aqueous phase in the emulsion layers for imaging by fluorescence microscopy.
High resolution mass spectra (HRMS) were recorded on a Thermo Electron Exactive. 400.1 (1H) NMR spectra were recorded on Brucker Avance 400 spectrometer at room temperature using perdeuterated solvents as internal standards. The emulsion droplets were characterized by fluorescence microscopy. The devices were mounted on an inverted microscope (AXIO Observer A1, Zeiss) and images were acquired using a EMCCD LucaR camera (Andor Technologies). Images (using brightfield and fluorescence microscopy) were acquired using Zeiss ×20 dry objective and the appropriate filter set for the fluorophore being imaged. Image was analyzed using ImageJ.

[2] = Gel formation in buffer solution and chloroform; type: physicochemical; conditions: 10 mM in 0.6 M sodium phosphate buffer pH 8, no enzyme
alkaline phosphatase = target: T1, alkaline phosphatase (Bos taurus, UniProt P19111); experiment: Dephosphorylation of Fmoc-YpL to Fmoc-YL by alkaline phosphatase (reversed phase HPLC); type: biochemical, bovine; conditions: 10 mM, buffer pH 8
T1 construct: purchased Sigma Aldrich; host or cells: Pichia pastoris
Experimental: Enzymatic Conversion of Fmoc-YpL to Fmoc-YL.
Fmoc-Tyr(PO(NMe2)2-OH (537.55 g·mol^−1) was purchased from Novabiochem. Fmoc-Tyr-OH (403.43 g·mol^−1), L-Leucine tert-butyl hydrochloride (223.74 g·mol^−1) and alkaline phosphatase from bovine, expressed in Pichia pastoris (5000 U·mg^−1protein, 20 mgprotein·mL^−1, 0.049 mL, Apparent molar weight 160 kDa) were supplied by Sigma Aldrich. One enzyme unit corresponds to the quantity of alkaline phosphatase hydrolysing 1 μmol of 4-nitrophenyl phosphate per minute at pH 9.8 and 37° C.
10 mM of synthesised Fmoc-YpL was prepared in 950 μL of 0.6 M sodium phosphate buffer pH 8 and immediately added 50 μL of alkaline phosphatase (0.0555 U·μL^−1, or 55.53 U·mL^−1 enzymatic concentration), vortexed and subject to ultra sounds at room temperature. All characterisation was done after 24 hours except when stated otherwise. For the Fmoc-YpL precursor, the preparation was the same except no enzyme was added.

[3] = Stability of chloroform-in-water emulsions (time, heat, salts) versus SDS; type: physicochemical; conditions: 10 mM
Experimental: The top images show freshly prepared emulsions and the bottom images show emulsions incubated for 2 weeks. […] The top images show freshly prepared emulsions and the bottom images show emulsions heated at 60° C. for 3 hours. […] The top images show freshly prepared emulsions and the bottom images show emulsions incubated for 24 hours.
(§1) (the volume ratio of buffer solution to chloroform is altered from 1:9, 3:7, 5:5, 7:3, to 9:1, total volume was always 1 mL), after hand-shaking for 5 seconds emulsions form in vials. For SEM, IR, stability, average particle size, critical emulsion concentration and demulsification measurements, the volume ratio of buffer solution to chloroform was fixed at 7:3. The concentration of all aromatic peptide amphiphiles studied (Fmoc-YA, Fmoc-YS, Pyr-YL, Fmoc-FF and Fmoc-FFF) was 10 mM, except for in the determination of the critical emulsion concentration (0.1-10 mM) and demulsification measurements (2 mM).

[4] = Emulsion formation by aromatic peptide amphiphiles (fluorescence microscopy, FITC label); type: physicochemical; conditions: chloroform / phosphate buffer pH 8; 10 mM peptide
Experimental: as §1

[5] = type: physicochemical
Experimental: To further increase the hydrophobicity, di- and tri-phenylalanine were tested as the peptide sequences (Fmoc-FF and Fmoc-FFF). […] Replacing the Fmoc group with pyrene, amphiphiles and the emulsion systems are inherently endowed with fluorescent properties. […] There is the clear expectation, based upon the results presented that it should be possible to change the peptide sequences and aromatic moieties to further to optimize and functionalize the emulsion systems.

thermolysin = target: T2, thermolysin (Bacillus thermoproteolyticus, UniProt P00800); experiment: Enzymatic demulsification of emulsions by thermolysin; type: biochemical
T2 sequence (P00800 233-548): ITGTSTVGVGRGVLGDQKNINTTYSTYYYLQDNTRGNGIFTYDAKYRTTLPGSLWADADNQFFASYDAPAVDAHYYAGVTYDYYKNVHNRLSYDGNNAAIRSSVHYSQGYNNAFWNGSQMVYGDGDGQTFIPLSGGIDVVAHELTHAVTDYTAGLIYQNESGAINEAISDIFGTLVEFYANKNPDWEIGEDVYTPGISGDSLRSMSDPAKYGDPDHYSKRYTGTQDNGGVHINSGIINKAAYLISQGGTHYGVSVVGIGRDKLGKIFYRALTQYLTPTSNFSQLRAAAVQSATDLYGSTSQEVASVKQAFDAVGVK
Excerpt: Scale bar is 50 μm. […] (c) Optical photographs of vials in which emulsions formed (left) and demulsified (right) in addition of thermolysin.
Another vital advantage of using peptide self-assembly to stabilize the emulsion systems is the ability to digest the stabilizing film using a suitable enzyme. Proteases, the enzymes that cleave peptide bonds cause disassembly of amphiphiles.
as §1

T1 sequence (P19111 20-506): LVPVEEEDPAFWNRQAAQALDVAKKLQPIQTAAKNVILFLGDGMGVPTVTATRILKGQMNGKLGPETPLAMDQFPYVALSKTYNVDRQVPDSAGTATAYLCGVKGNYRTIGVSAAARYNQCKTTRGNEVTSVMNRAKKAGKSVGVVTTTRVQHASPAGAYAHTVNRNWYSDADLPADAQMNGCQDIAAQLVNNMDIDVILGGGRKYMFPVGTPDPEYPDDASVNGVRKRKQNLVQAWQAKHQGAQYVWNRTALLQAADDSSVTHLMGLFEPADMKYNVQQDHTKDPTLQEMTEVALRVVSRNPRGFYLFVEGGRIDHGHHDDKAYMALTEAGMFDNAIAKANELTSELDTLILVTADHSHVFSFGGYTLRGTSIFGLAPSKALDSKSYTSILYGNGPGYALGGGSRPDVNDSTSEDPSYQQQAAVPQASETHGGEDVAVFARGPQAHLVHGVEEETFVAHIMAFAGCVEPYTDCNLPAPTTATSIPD

In the case of “Fmoc-tyrosine phosphate-leucine [Fmoc-YpL]”, the “Remain in water (%)” value [1] is reported as 31.03%, the “Transfer to chloroform (%)” value [1] is reported as 0.74% and the “Transfer to interface (%)” value [1] is reported as 68.23%. The “gel formation of precursor solution” value [2] was “not able to form a gel”, the “time to complete conversion to Fmoc-YL” value (alkaline phosphatase) was ≤ 24 h and the “Fmoc-YpL converted into Fmoc-YL” value (alkaline phosphatase; after 2 hours) was “approximately 90%”.

For CCCCCCCCCCCCOS(=O)(=O)[O-].[Na+] [SDS, sodium dodecyl sulfate], the “emulsion state after 24 h in salt solution” value ([3]; 100 mM phosphate, chloride and thiocyanate solution) was “phase-separated” and the “emulsion state after two weeks at room temperature” value ([3]; chloroform-in-water) was “demulsified and phase-separated”.

In the case of O=C(N[C@@H](Cc1ccccc1)C(=O)N[C@@H](Cc1ccccc1)C(=O)N[C@@H](Cc1ccccc1)C(=O)O)OCC1c2ccccc2-c2ccccc21 [Fmoc-FFF, Fmoc-Phe-Phe-Phe-OH] (Fmoc-Phe-Phe-Phe-OH), the “type of emulsion formed” value [4] is reported as “formation of water-in-chloroform emulsions”, the solubility in chloroform [5] is reported as “do dissolve in chloroform” and the “solubility in the water phase” value [5] is reported as “too hydrophobic to dissolve in the water phase”.

For Fmoc-tyrosine-leucine [Fmoc-YL], the “time for droplets to demulsify and coalesce to bigger droplets after adding thermolysin” value (thermolysin; 1 mg·mL^−1 thermolysin, 2 mmol·L^−1 Fmoc-YL) was 60 s and the “conversion of cleaving reaction catalyzed by thermolysin (HPLC)” value (thermolysin; after 10 minutes, aqueous media) was 50%.
